Read-outs that look alike come from different tables or passages of the source.
Key:
[1] = tested on: Trichomonas vaginalis G3 trophozoites
[2] = tested on: nontumorigenic neonatal foreskin fibroblast (NFF) cell line
[3] = replicate 1, parasite screen at 1 µg/mL
[4] = replicate 2, parasite screen at 1 µg/mL
[5] = HTS, parasite screen at 1 µg/mL, replicate 1
[6] = HTS, parasite screen at 1 µg/mL, replicate 1, raw absorbance
[7] = HTS, parasite screen at 1 µg/mL, replicate 2
[8] = HTS, parasite screen at 1 µg/mL, replicate 2, raw absorbance
[9] = parasite screen at 1 µg/mL, replicate 1
[10] = parasite screen at 1 µg/mL, replicate 2
[11] = NFF_NS1 screen at 5 µg/mL, NFF cells
[12] = HTS single concentration, parasite screen 1 µg/mL, replicate 1
[13] = HTS single concentration, parasite screen 1 µg/mL, replicate 2
[14] = NFF_NS1 screen 5 µg/mL, single concentration
[15] = NFF fibroblast screen at 5 µg/mL, A = active, I = inactive

CC(C=CC1OC(=O)C=CC1C)=CC(C)CC=CC(C)=CC(C)C(=O)C(C)C(O)C(C)CC(C)=CC(=O)O (stereo not drawn) [BIA-L1045]
T.vaginalis_%inb_Rep1 [1, 3]: 3.96%
T.vaginalis_%inb_Rep2 [1, 4]: 1.86%
NFF_Activity ([2]; NFF cells, screen at 5 µg/mL): A (active (A) compounds having >25% inhibitory activity)

CC[C@H]1OC(=O)[C@H](C)[C@@H](O[C@H]2C[C@@](C)(OC)[C@@H](O)[C@H](C)O2)[C@H](C)[C@@H](O[C@@H]2O[C@H](C)C[C@H](N(C)C)[C@H]2O)[C@](C)(O)C[C@@H](C)C(=O)[C@H](C)[C@@H](O)[C@]1(C)O [Erythromycin A]
T.vaginalis_%inb_Rep1 [1, 5]: 5.27%
T.vaginalis_Absorbance_Rep1 [1, 6]: 0.806
T.vaginalis_%inb_Rep2 [1, 7]: 3.78%
T.vaginalis_Absorbance_Rep2 [1, 8]: 0.694
NFF_Activity ([2]; NFF_NS1 screen at 5 µg/mL): I (otherwise these were reported as inactive (I))

CC[C@H]1C[C@@H]2CC[C@@H](O2)[C@@H](C)C(=O)O[C@H](CC)C[C@H]2CC[C@H](O2)[C@H](C)C(=O)O[C@@H](CC)C[C@@H]2CC[C@@H](O2)[C@@H](C)C(=O)O[C@H](CC)C[C@H]2CC[C@H](O2)[C@H](C)C(=O)O1 [BIA-T1287]
T.vaginalis_%inb_Rep1 [1, 9]: 8.97%
T.vaginalis_%inb_Rep2 [1, 10]: 15.05%
NFF_Activity [2, 11]: I (otherwise these were reported as inactive (I))

CCC1OC(=O)C(C)C(OC2CC(C)(OC)C(O)C(C)O2)C(C)C(OC2OC(C)CC(N(C)C)C2O)C2(C)CC(C)C3(O2)OC1(C)C(O)C3C (stereo not drawn) [BIA-A1348]
T.vaginalis_%inb_Rep1 [1, 12]: 15.19%
T.vaginalis_%inb_Rep2 [1, 13]: 13.67%
NFF_Activity [2, 14]: I (otherwise these were reported as inactive (I))

C[C@H]1CCC/C=C/C(=O)c2c(O)cc(O)cc2CC(=O)O1 [BIA-D1399]
T.vaginalis_%inb_Rep1 [1, 12]: 13.95%
T.vaginalis_%inb_Rep2 [1, 13]: 13.67%
NFF_Activity [2, 14]: A (active (A) compounds having >25% inhibitory activity)

CC(=O)NCCc1cnc[nH]1 [BIA-A1737]
T.vaginalis_%inb_Rep1 [1, 12]: 14.86%
T.vaginalis_%inb_Rep2 [1, 13]: 38.90%
NFF_Activity [2, 14]: I (otherwise these were reported as inactive (I))

CCC(=O)[C@@H](C)[C@@H](O)[C@H](C)C[C@@H](C)[C@H]1OC(=O)C[C@@]2(O)CC=C(C)[C@H](O2)/C(C)=C/CCC[C@@H](O[C@H]2C[C@@H](O)[C@H](O)[C@@H](C)O2)/C=C/[C@H](C)C[C@H]1C [Venturicidin B]
T.vaginalis_%inb_Rep1 [1, 5]: 9.81%
T.vaginalis_%inb_Rep2 [1, 7]: 16.33%
NFF_Activity [2, 15]: I (otherwise these were reported as inactive (I))

COc1cc(O)c2c(c1)C=CCC(O)C(O)C(=O)C=CCC(C)OC2=O (stereo not drawn) [BIA-L1160]
T.vaginalis_%inb_Rep1 [1, 3]: 12.27%
T.vaginalis_%inb_Rep2 [1, 4]: 12.76%
NFF_Activity ([2]; NFF cells, screen at 5 µg/mL): I (otherwise these were reported as inactive (I))

CSC[S@@+]([O-])CC(CO)NC(=O)/C=C/c1c(C)[nH]c(=O)[nH]c1=O (stereo partly drawn) [BIA-S1798]
T.vaginalis_%inb_Rep1 [1, 9]: 68.56%
T.vaginalis_%inb_Rep2 [1, 10]: 88.33%
NFF_Activity [2, 11]: A (active (A) compounds having >25% inhibitory activity)

CCCC[C@@H](C)[C@@H](OC(=O)C[C@@H](CC(=O)O)C(=O)O)[C@H](C[C@@H](C)C[C@H](O)CCCC[C@@H](O)C[C@H](O)[C@H](C)N)OC(=O)C[C@@H](CC(=O)O)C(=O)O [Fumonisin B1]
T.vaginalis_%inb_Rep1 [1, 5]: 12.98%
T.vaginalis_Absorbance_Rep1 [1, 6]: 0.958
T.vaginalis_%inb_Rep2 [1, 7]: 14.05%
T.vaginalis_Absorbance_Rep2 [1, 8]: 0.854
NFF_Activity ([2]; NFF_NS1 screen at 5 µg/mL): I (otherwise these were reported as inactive (I))

CC1=C[C@H]2O[C@@H]3[C@H](O)[C@@H](O)[C@](C)([C@@]2(CO)C[C@@H]1OC(=O)CC(C)C)[C@]31CO1 [BIA-T1934]
T.vaginalis_%inb_Rep1 [1, 9]: 10.70%
T.vaginalis_%inb_Rep2 [1, 10]: 12.37%
NFF_Activity [2, 11]: I (otherwise these were reported as inactive (I))

CC1=C(O)C(=O)[C@@H]2O[C@@H]2C1=O [BIA-T1695]
T.vaginalis_%inb_Rep1 [1, 9]: 9.91%
T.vaginalis_%inb_Rep2 [1, 10]: 12.25%
NFF_Activity [2, 11]: A (active (A) compounds having >25% inhibitory activity)

OCC1=CC(NC2CC(CO)C(OC3OC(CO)C(O)C(O)C3O)C(O)C2O)C(O)C(O)C1O (stereo not drawn) [Validamycin A]
T.vaginalis_%inb_Rep1 [1, 5]: 14.26%
T.vaginalis_%inb_Rep2 [1, 7]: 19.07%
NFF_Activity [2, 15]: I (otherwise these were reported as inactive (I))

Cc1cc2nc3c(=O)[nH]c(=O)nc-3n(C[C@H](O)[C@H](O)[C@H](O)CO)c2cc1N(C)C [BIA-R1535]
T.vaginalis_%inb_Rep1 [1, 9]: 11.33%
T.vaginalis_%inb_Rep2 [1, 10]: 14.32%
NFF_Activity [2, 11]: I (otherwise these were reported as inactive (I))

CC[C@H]1/C=C/C=C/C[C@@H](C)[C@H](O)[C@@](C)(O)C(=O)[C@@H](C)[C@H](O)[C@@H](C)C(=O)[C@@H](C)[C@H](O)[C@@H](C)/C=C/C(=O)O[C@@H]2[C@H](C)[C@H](CC1)O[C@@]1(O[C@@H](C[C@@H](C)O)[C@@H](C)CC1=O)[C@H]2C [Oligomycin B]
T.vaginalis_%inb_Rep1 ([1]; HTS replicate 1, parasite screen 1 µg/mL): 12.98%
T.vaginalis_%inb_Rep2 ([1]; HTS replicate 2, parasite screen 1 µg/mL): 13.09%
NFF_Activity ([2]; NFF fibroblasts, single concentration 5 µg/mL): I (otherwise these were reported as inactive (I))

Diacetoxyscirpenol
T.vaginalis_%inb_Rep1 [1]: 8.29%
T.vaginalis_%inb_Rep2 [1]: 9.08%
T.vaginalis_Absorbance_Rep1 [1]: 0.923
T.vaginalis_Absorbance_Rep2 [1]: 0.786
NFF_Activity [2]: I (key: active (A) compounds having >25% inhibitory activity; otherwise these were reported as inactive (I))

From paper PMC7897990, “TriTOX: A novel Trichomonas vaginalis assay platform for high-throughput screening of compound libraries” (International Journal for Parasitology: Drugs and Drug …, 2021)
